Reference: patent EP0726263A2, “Herbicidal (1,3,4)oxadiazoles and thiadiazoles” (American Cyanamid Company, priority 1995, dated 1996)

How the values were obtained:
Type in all cases: in vivo
[1] = test system: Abutilon theophrasti; test: Herbicidal activity, preemergence test; details: pre; sprayed onto soil, 800 g of active material per hectare; evaluated 3 weeks after treatment
Description: (§1) To evaluate their herbicidal activity, compounds according to the invention are tested using a representative range of plants: TRZAW Triticum aestivum HORVW Hordeum vulgare ZEAMX Zea mays GOSHI Gossypium hirsutum HELAN Helianthus annuus GLYMA Glycine max ALOMY Alopecurus myosuroides SETVI Setaria viridis ECHCG Echinochloa crus-galli GALAP Galium aparine STEME Stellaria media VERPE Veronica persica VIOAR Viola arvensis IPOHE Ipomoea hederacea LAMPU Lamium purpureum PAPRH Papaver rhoeas MATIN Matricaria inodora AMARE Amaranthus retroflexus ABUTH Abutilon theophrasti AMBEL Ambrosia artemisifolia CHEAL Chenopodium album
(§2) The tests fall into two categories, preemergence and postemergence. The preemergence tests involve spraying a liquid formulation of the compound onto the soil in which the seeds have recently been sown. The postemergence tests involve spraying a liquid formulation of the compound onto seedling plants.
(§3) The soil used in the tests is a prepared horticultural loam.
(§4) The formulations used in the tests are prepared from solutions of the test compounds in acetone containing 0.4% by weight of an alkylphenol/ethylene oxide condensate available under the trade mark TRITON X-155. These acetone solutions are diluted with water and the resulting formulations applied at dosage levels corresponding to 800 g of active material per hectare in a volume equivalent to 900 litres per hectare.
(§5) In the preemergence tests untreated sown soil and in the postemergence tests untreated soil bearing seedling plants are used as controls.
(§6) Results of herbicide evaluation are expressed on a rating scale (0-9). The scale is based upon a visual observation of plant stand, vigor, malformation, size, chlorosis, and general plant appearance as compared to a control. Preemergence and postemergence treatments are evaluated at 3 and 2 weeks after treatment, respectively.

[2] = test system: Alopecurus myosuroides; test: Herbicidal activity, preemergence test; details: pre; sprayed onto soil, 800 g of active material per hectare; evaluated 3 weeks after treatment
Description: as §1, §2, §3, §4, §5, §6

[3] = test system: Amaranthus retroflexus; test: Herbicidal activity, preemergence test; details: pre; sprayed onto soil, 800 g of active material per hectare; evaluated 3 weeks after treatment
Description: as §1, §2, §3, §4, §5, §6

[4] = test system: Ambrosia artemisifolia; test: Herbicidal activity, preemergence test; details: pre; sprayed onto soil, 800 g of active material per hectare; evaluated 3 weeks after treatment
Description: as §1, §2, §3, §4, §5, §6

[5] = test system: Chenopodium album; test: Herbicidal activity, preemergence test; details: pre; sprayed onto soil, 800 g of active material per hectare; evaluated 3 weeks after treatment
Description: as §1, §2, §3, §4, §5, §6

[6] = test system: Galium aparine; test: Herbicidal activity, preemergence test; details: pre; sprayed onto soil, 800 g of active material per hectare; evaluated 3 weeks after treatment
Description: as §1, §2, §3, §4, §5, §6

[7] = test system: Glycine max; test: Herbicidal activity, preemergence test; details: pre; sprayed onto soil, 800 g of active material per hectare; evaluated 3 weeks after treatment
Description: as §1, §2, §3, §4, §5, §6

[8] = test system: Gossypium hirsutum; test: Herbicidal activity, preemergence test; details: pre; sprayed onto soil, 800 g of active material per hectare; evaluated 3 weeks after treatment
Description: as §1, §2, §3, §4, §5, §6

[9] = test system: Hordeum vulgare; test: Herbicidal activity, preemergence test; details: pre; sprayed onto soil, 800 g of active material per hectare; evaluated 3 weeks after treatment
Description: as §1, §2, §3, §4, §5, §6

[10] = test system: Ipomoea hederacea; test: Herbicidal activity, preemergence test; details: pre; sprayed onto soil, 800 g of active material per hectare; evaluated 3 weeks after treatment
Description: as §1, §2, §3, §4, §5, §6

[11] = test system: Lamium purpureum; test: Herbicidal activity, preemergence test; details: pre; sprayed onto soil, 800 g of active material per hectare; evaluated 3 weeks after treatment
Description: as §1, §2, §3, §4, §5, §6

[12] = test system: Matricaria inodora; test: Herbicidal activity, preemergence test; details: pre; sprayed onto soil, 800 g of active material per hectare; evaluated 3 weeks after treatment
Description: as §1, §2, §3, §4, §5, §6

[13] = test system: Papaver rhoeas; test: Herbicidal activity, preemergence test; details: pre; sprayed onto soil, 800 g of active material per hectare; evaluated 3 weeks after treatment
Description: as §1, §2, §3, §4, §5, §6

[14] = test system: Setaria viridis; test: Herbicidal activity, preemergence test; details: pre; sprayed onto soil, 800 g of active material per hectare; evaluated 3 weeks after treatment
Description: as §1, §2, §3, §4, §5, §6

[15] = test system: Stellaria media; test: Herbicidal activity, preemergence test; details: pre; sprayed onto soil, 800 g of active material per hectare; evaluated 3 weeks after treatment
Description: as §1, §2, §3, §4, §5, §6

[16] = test system: Triticum aestivum; test: Herbicidal activity, preemergence test; details: pre; sprayed onto soil, 800 g of active material per hectare; evaluated 3 weeks after treatment
Description: as §1, §2, §3, §4, §5, §6

[17] = test system: Veronica persica; test: Herbicidal activity, preemergence test; details: pre; sprayed onto soil, 800 g of active material per hectare; evaluated 3 weeks after treatment
Description: as §1, §2, §3, §4, §5, §6

[18] = test system: Zea mays; test: Herbicidal activity, preemergence test; details: pre; sprayed onto soil, 800 g of active material per hectare; evaluated 3 weeks after treatment
Description: as §1, §2, §3, §4, §5, §6

[19] = test system: Abutilon theophrasti; test: Herbicidal activity, postemergence test; details: post; sprayed onto seedling plants, 800 g of active material per hectare; evaluated 2 weeks after treatment
Description: as §1, §2, §3, §4, §5, §6

[20] = test system: Alopecurus myosuroides; test: Herbicidal activity, postemergence test; details: post; sprayed onto seedling plants, 800 g of active material per hectare; evaluated 2 weeks after treatment
Description: as §1, §2, §3, §4, §5, §6

[21] = test system: Amaranthus retroflexus; test: Herbicidal activity, postemergence test; details: post; sprayed onto seedling plants, 800 g of active material per hectare; evaluated 2 weeks after treatment
Description: as §1, §2, §3, §4, §5, §6

[22] = test system: Ambrosia artemisifolia; test: Herbicidal activity, postemergence test; details: post; sprayed onto seedling plants, 800 g of active material per hectare; evaluated 2 weeks after treatment
Description: as §1, §2, §3, §4, §5, §6

[23] = test system: Chenopodium album; test: Herbicidal activity, postemergence test; details: post; sprayed onto seedling plants, 800 g of active material per hectare; evaluated 2 weeks after treatment
Description: as §1, §2, §3, §4, §5, §6

[24] = test system: Galium aparine; test: Herbicidal activity, postemergence test; details: post; sprayed onto seedling plants, 800 g of active material per hectare; evaluated 2 weeks after treatment
Description: as §1, §2, §3, §4, §5, §6

[25] = test system: Glycine max; test: Herbicidal activity, postemergence test; details: post; sprayed onto seedling plants, 800 g of active material per hectare; evaluated 2 weeks after treatment
Description: as §1, §2, §3, §4, §5, §6

[26] = test system: Gossypium hirsutum; test: Herbicidal activity, postemergence test; details: post; sprayed onto seedling plants, 800 g of active material per hectare; evaluated 2 weeks after treatment
Description: as §1, §2, §3, §4, §5, §6

[27] = test system: Hordeum vulgare; test: Herbicidal activity, postemergence test; details: post; sprayed onto seedling plants, 800 g of active material per hectare; evaluated 2 weeks after treatment
Description: as §1, §2, §3, §4, §5, §6

[28] = test system: Ipomoea hederacea; test: Herbicidal activity, postemergence test; details: post; sprayed onto seedling plants, 800 g of active material per hectare; evaluated 2 weeks after treatment
Description: as §1, §2, §3, §4, §5, §6

[29] = test system: Lamium purpureum; test: Herbicidal activity, postemergence test; details: post; sprayed onto seedling plants, 800 g of active material per hectare; evaluated 2 weeks after treatment
Description: as §1, §2, §3, §4, §5, §6

[30] = test system: Matricaria inodora; test: Herbicidal activity, postemergence test; details: post; sprayed onto seedling plants, 800 g of active material per hectare; evaluated 2 weeks after treatment
Description: as §1, §2, §3, §4, §5, §6

[31] = test system: Papaver rhoeas; test: Herbicidal activity, postemergence test; details: post; sprayed onto seedling plants, 800 g of active material per hectare; evaluated 2 weeks after treatment
Description: as §1, §2, §3, §4, §5, §6

[32] = test system: Setaria viridis; test: Herbicidal activity, postemergence test; details: post; sprayed onto seedling plants, 800 g of active material per hectare; evaluated 2 weeks after treatment
Description: as §1, §2, §3, §4, §5, §6

[33] = test system: Stellaria media; test: Herbicidal activity, postemergence test; details: post; sprayed onto seedling plants, 800 g of active material per hectare; evaluated 2 weeks after treatment
Description: as §1, §2, §3, §4, §5, §6

[34] = test system: Triticum aestivum; test: Herbicidal activity, postemergence test; details: post; sprayed onto seedling plants, 800 g of active material per hectare; evaluated 2 weeks after treatment
Description: as §1, §2, §3, §4, §5, §6

[35] = test system: Veronica persica; test: Herbicidal activity, postemergence test; details: post; sprayed onto seedling plants, 800 g of active material per hectare; evaluated 2 weeks after treatment
Description: as §1, §2, §3, §4, §5, §6

[36] = test system: Zea mays; test: Herbicidal activity, postemergence test; details: post; sprayed onto seedling plants, 800 g of active material per hectare; evaluated 2 weeks after treatment
Description: as §1, §2, §3, §4, §5, §6

Row | Structure (SMILES) | ABUTH control rating (0-9) [1] | ALOMY control rating (0-9) [2] | AMARE control rating (0-9) [3] | AMBEL control rating (0-9) [4] | CHEAL control rating (0-9) [5] | GALAP control rating (0-9) [6] | GLXMA control rating (0-9) [7] | GOSHI control rating (0-9) [8] | HORVW control rating (0-9) [9] | IPOHE control rating (0-9) [10] | LAMPU control rating (0-9) [11] | MATIN control rating (0-9) [12] | PAPRH control rating (0-9) [13] | SETVI control rating (0-9) [14] | STEME control rating (0-9) [15] | TRZAW control rating (0-9) [16] | VERPE control rating (0-9) [17] | ZEAMX control rating (0-9) [18] | ABUTH control rating (0-9) [19] | ALOMY control rating (0-9) [20] | also measured
1 | O=C(NCc1cccs1)c1nnc(-c2ccc(F)cc2)o1 [Example 8] | 0 (no effect) | 0 (no effect) | 9 (complete kill) | 3 (moderate effect) | 5 (definite injury) | 0 (no effect) | 2 (slight effect) | 2 (slight effect) | 0 (no effect) | 0 (no effect) | 0 (no effect) | 5 (definite injury) | 9 (complete kill) | 3 (moderate effect) | 7 (good herbicidal effect) | 0 (no effect) | 7 (good herbicidal effect) | 2 (slight effect) | 3 (moderate effect) | 0 (no effect) | AMARE control rating (0-9) [21]: 8 (approaching complete kill); AMBEL control rating (0-9) [22]: 3 (moderate effect); CHEAL control rating (0-9) [23]: 4 (injury); GALAP control rating (0-9) [24]: 0 (no effect); GLXMA control rating (0-9) [25]: 0 (no effect); GOSHI control rating (0-9) [26]: 0 (no effect); HORVW control rating (0-9) [27]: 0 (no effect); IPOHE control rating (0-9) [28]: 0 (no effect); LAMPU control rating (0-9) [29]: 0 (no effect); MATIN control rating (0-9) [30]: 2 (slight effect); PAPRH control rating (0-9) [31]: 3 (moderate effect); SETVI control rating (0-9) [32]: 0 (no effect); STEME control rating (0-9) [33]: 5 (definite injury); TRZAW control rating (0-9) [34]: 0 (no effect); VERPE control rating (0-9) [35]: 4 (injury); ZEAMX control rating (0-9) [36]: 0 (no effect)
2 | O=C(NCc1ccccc1)c1nnc(-c2ccc(F)cc2)o1 [Example 9] | 0 (no effect) | 0 (no effect) | 0 (no effect) | 0 (no effect) | 0 (no effect) | 0 (no effect) | 1 (trace effect) | 0 (no effect) | 0 (no effect) | 0 (no effect) | 0 (no effect) | 0 (no effect) | 6 (herbicidal effect) | 3 (moderate effect) | 0 (no effect) | 0 (no effect) | 7 (good herbicidal effect) | 0 (no effect) | 3 (moderate effect) | 0 (no effect) | AMARE control rating (0-9) [21]: 0 (no effect); AMBEL control rating (0-9) [22]: 0 (no effect); CHEAL control rating (0-9) [23]: 0 (no effect); GALAP control rating (0-9) [24]: 0 (no effect); GLXMA control rating (0-9) [25]: 0 (no effect); GOSHI control rating (0-9) [26]: 0 (no effect); HORVW control rating (0-9) [27]: 0 (no effect); IPOHE control rating (0-9) [28]: 0 (no effect); LAMPU control rating (0-9) [29]: 0 (no effect); MATIN control rating (0-9) [30]: 0 (no effect); PAPRH control rating (0-9) [31]: 0 (no effect); SETVI control rating (0-9) [32]: 0 (no effect); STEME control rating (0-9) [33]: 0 (no effect); TRZAW control rating (0-9) [34]: 0 (no effect); VERPE control rating (0-9) [35]: 0 (no effect); ZEAMX control rating (0-9) [36]: 0 (no effect)
